Where two headings read alike, the source gives them in different places.
What was measured:
[1] = molecular target: HCV NS3 protease domain genotype 3a (Hepatitis C virus genotype 3a, UniProt Q81258); assay: Ki determination, NS3 protease genotype 3a (fluorogenic depsipeptide substrate); format: biochemical; conditions: 200 pM enzyme, NS4A peptide
Text: Purified NS3 protease domain (amino acids 1-181) of the genotype 1b and 3a virus were generated as above. The internally quenched fluorogenic depsipeptide substrate Ac-DED(Edans)-EEAbuΨ[COO]ASK(Dabcyl)-NH2 and a synthetic peptide containing the hydrophobic core residues of the NS4A protein cofactor ([…]; NS4A peptide) were obtained from Anaspec, Inc. (San Jose, Calif.). Other chemicals and biochemicals were of reagent grade or better and were purchased from standard suppliers.
Reactions were run at room temperature in buffer consisting of 50 mM HEPES, 40% glycerol, 0.05% Triton X-100, 10 mM DTT, and 10% DMSO. The final assay solutions contained 50 pM NS3 genotype 1 b protease or 200 pM genotype 3a protease, 20 μM NS4A peptide, and 4 μM substrate (genotype 1b) or 2 μM substrate (genotype 3a). Inhibitor concentrations varied from 100 nM to 5 pM in 3-fold dilutions, and no-inhibitor controls were included.
Compound dilutions were made in DMSO at 20× final concentration. Reaction mixtures were prepared in 96-well assay plates. A solution of enzyme and NS4A peptide in assay buffer (25 μL volume with both reagents at 4× final concentration) was mixed with 45 μL assay buffer and 5 μL of either inhibitor or DMSO, and pre-incubated at room temperature for 1 hour. The reaction was started by addition of 25 μL substrate solution at 4× final concentration. Plates were mixed vigorously for 5-10 seconds and reactions were allowed to proceed for 90 minutes, fluorescence was measured every 30 s between 90 and 120 minutes reaction time using a Tecan InfiniTe M1000 or PerkinElmer Envision multimode plate reader with an excitation wavelength of 340 nm and an emission wavelength of 490 nm.
Rates were calculated from the progress curves at steady state, in the time frame of 90-120 minutes after addition of substrate. To determine the Ki, rates were plotted as a function of inhibitor concentration, and the data were fit with equation 1 (Morrison, J. F., Biochimica et Biophysica Acta 1969, 185, 269-286) to calculate Ki^app using GraphPad Prism 5. Active fraction of enzyme was determined by active site titration with known potent inhibitors. Ki was calculated from Ki^app/(1+[[S]/Km]).

[2] = test system: genotype 2a (JFH-1) stable HCV replicon in Huh-7-derived cells; assay: Stable subgenomic HCV replicon EC50, genotype 2a (Renilla luciferase); format: cell-based, hepatitis C virus; conditions: stable replicon genotype 2a, 72 h, read-out: EC50 2A RLUC
In short: (§1)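 Compounds, three-fold diluted, were applied to Huh-7-derived cells harbouring luciferase replicons (genotype 1a H77, 1b Con1, 2a JFH-1, 4a ED43, with strain-specific adaptive mutations). Seventy-two hours later, intracellular replication was gauged by Renilla luciferase activity and EC50 derived by regression.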

[3] = test system: genotype 1b (Con1) wild type transient HCV replicon in Huh-7-derived cells; assay: Transient-transfected HCV replicon EC50, genotype 1b wild type; format: cell-based, hepatitis C virus; conditions: 72 h, transient-transfected replicon genotype 1b wild type, read-out: EC50 1B WT
[4] = test system: genotype 4a (ED43) stable HCV replicon in Huh-7-derived cells; assay: Stable subgenomic HCV replicon EC50, genotype 4a (Renilla luciferase); format: cell-based, hepatitis C virus; conditions: 72 h, read-out: EC50 4A RLUC
In short: as §1

[5] = test system: genotype 1a (H77) wild type transient HCV replicon in Huh-7-derived cells; assay: Transient-transfected HCV replicon EC50, genotype 1a wild type; format: cell-based, hepatitis C virus; conditions: 72 h, transient-transfected replicon genotype 1a wild type, read-out: EC50 1A WT
[6] = test system: genotype 3a (S52) stable HCV replicon in Huh-7-derived cells; assay: Stable subgenomic HCV replicon EC50, genotype 3a (Renilla luciferase); format: cell-based, hepatitis C virus; conditions: 72 h, read-out: EC50 3A RLUC
[7] = test system: genotype 1a NS3/4a protease inhibitor resistant variant R155K transient HCV replicon in Huh-7-derived cells; assay: Transient-transfected HCV replicon EC50, genotype 1a R155K; format: cell-based, hepatitis C virus; conditions: 72 h
[8] = test system: genotype 1a (H77) stable HCV replicon in Huh-7-derived cells; assay: Stable subgenomic HCV replicon EC50, genotype 1a (Renilla luciferase); format: cell-based, hepatitis C virus; conditions: stable replicon genotype 1a, 72 h, read-out: EC50 1A RLUC
In short: as §1

[9] = test system: genotype 1b (Con1) stable HCV replicon in Huh-7-derived cells; assay: Stable subgenomic HCV replicon EC50, genotype 1b (Renilla luciferase); format: cell-based, hepatitis C virus; conditions: stable replicon genotype 1b, 72 h, read-out: EC50 1B RLUC
In short: as §1

[10] = test system: genotype 1b NS3/4a protease inhibitor resistant variant D168A transient HCV replicon in Huh-7-derived cells; assay: Transient-transfected HCV replicon EC50, genotype 1b D168A; format: cell-based, hepatitis C virus; conditions: 72 h
[11] = Hepatitis C virus, read-out: EC50 1A R155K, transient-transfected replicon genotype 1a R155K resistant variant, 72 h
[12] = Hepatitis C virus, read-out: EC50 1B D168A, transient-transfected replicon genotype 1b D168A resistant variant, 72 h

HCV NS3 protease domain genotype 3a, sequence (Q81258 whole entry, looked up, the tested form may be a part): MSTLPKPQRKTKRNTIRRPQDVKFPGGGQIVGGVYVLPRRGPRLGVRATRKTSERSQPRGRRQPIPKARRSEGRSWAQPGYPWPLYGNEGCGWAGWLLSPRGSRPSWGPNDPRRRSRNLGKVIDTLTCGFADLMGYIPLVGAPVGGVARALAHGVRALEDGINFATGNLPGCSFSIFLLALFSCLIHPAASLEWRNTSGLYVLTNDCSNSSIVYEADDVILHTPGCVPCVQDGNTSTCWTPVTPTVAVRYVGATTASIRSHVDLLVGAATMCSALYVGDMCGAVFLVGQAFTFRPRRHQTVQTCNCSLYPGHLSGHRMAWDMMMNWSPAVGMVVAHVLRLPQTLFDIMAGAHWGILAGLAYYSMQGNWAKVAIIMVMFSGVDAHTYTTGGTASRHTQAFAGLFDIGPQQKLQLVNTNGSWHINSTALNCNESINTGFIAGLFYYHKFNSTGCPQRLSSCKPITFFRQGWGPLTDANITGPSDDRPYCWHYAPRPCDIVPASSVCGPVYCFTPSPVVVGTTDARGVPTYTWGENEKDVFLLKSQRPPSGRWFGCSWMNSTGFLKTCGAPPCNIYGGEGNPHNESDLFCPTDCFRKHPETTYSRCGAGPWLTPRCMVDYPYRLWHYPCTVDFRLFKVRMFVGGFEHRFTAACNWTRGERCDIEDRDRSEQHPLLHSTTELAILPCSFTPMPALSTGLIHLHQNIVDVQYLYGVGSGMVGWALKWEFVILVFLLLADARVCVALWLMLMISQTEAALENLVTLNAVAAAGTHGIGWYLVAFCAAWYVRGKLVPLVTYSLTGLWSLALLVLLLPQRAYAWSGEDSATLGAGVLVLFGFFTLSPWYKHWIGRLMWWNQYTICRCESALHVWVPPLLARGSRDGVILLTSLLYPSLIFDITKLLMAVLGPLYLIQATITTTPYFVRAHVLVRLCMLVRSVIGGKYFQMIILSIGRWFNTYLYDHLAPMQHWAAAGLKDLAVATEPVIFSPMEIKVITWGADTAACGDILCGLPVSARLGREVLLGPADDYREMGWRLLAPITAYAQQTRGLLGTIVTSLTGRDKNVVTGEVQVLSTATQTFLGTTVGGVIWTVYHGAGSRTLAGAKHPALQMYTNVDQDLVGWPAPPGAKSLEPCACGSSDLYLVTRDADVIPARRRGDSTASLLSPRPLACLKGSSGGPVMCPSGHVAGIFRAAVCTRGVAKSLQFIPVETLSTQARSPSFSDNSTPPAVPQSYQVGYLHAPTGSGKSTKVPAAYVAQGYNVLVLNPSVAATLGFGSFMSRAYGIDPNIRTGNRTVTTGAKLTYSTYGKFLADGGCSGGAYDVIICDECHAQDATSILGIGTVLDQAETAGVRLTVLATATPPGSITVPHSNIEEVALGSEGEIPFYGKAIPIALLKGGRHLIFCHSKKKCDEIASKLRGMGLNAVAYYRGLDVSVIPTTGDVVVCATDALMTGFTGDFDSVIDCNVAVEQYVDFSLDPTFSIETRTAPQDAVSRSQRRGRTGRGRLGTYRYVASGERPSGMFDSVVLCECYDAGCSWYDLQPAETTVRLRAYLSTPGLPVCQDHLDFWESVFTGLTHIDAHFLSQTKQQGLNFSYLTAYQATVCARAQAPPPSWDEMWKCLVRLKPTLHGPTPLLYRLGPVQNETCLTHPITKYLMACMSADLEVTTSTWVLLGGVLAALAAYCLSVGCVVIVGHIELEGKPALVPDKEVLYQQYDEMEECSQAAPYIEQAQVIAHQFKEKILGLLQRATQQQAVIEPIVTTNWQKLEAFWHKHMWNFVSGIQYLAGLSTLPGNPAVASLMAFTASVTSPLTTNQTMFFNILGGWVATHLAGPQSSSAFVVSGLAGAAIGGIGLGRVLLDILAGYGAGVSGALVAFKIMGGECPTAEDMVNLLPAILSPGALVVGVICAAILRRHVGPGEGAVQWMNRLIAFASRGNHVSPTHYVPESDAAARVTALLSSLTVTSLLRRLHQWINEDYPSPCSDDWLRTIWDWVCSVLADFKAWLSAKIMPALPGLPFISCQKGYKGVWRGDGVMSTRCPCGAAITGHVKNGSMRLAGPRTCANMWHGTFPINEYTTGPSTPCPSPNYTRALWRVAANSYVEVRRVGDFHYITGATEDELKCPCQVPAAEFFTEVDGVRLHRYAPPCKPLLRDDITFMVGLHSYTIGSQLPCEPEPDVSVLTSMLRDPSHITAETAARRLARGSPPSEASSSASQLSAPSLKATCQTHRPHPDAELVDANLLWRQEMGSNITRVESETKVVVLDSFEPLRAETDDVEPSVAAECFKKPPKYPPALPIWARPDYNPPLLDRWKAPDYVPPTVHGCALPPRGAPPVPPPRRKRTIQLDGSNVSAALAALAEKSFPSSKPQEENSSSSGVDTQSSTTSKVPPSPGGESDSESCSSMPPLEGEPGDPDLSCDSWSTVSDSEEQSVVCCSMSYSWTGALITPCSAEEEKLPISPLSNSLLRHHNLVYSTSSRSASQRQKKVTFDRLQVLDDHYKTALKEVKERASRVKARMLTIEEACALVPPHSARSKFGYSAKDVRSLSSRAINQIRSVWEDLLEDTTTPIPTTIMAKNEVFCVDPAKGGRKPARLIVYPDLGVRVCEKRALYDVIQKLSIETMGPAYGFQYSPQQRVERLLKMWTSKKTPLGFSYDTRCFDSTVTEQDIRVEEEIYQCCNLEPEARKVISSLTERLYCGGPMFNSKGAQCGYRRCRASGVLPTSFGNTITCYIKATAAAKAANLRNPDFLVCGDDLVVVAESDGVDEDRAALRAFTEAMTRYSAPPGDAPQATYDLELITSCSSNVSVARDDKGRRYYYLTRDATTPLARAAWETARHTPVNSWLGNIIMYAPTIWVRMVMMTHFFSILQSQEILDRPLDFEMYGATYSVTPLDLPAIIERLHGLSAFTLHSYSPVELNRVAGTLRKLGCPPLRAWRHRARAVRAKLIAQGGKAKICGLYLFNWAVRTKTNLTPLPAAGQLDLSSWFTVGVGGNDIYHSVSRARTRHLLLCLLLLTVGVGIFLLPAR

Structure (SMILES)	Ki [1] [nM]	EC50 ([2]; Hepatitis C virus) [nM]	EC50 ([3]; Hepatitis C virus) [nM]	EC50 ([4]; Hepatitis C virus) [nM]	EC50 ([5]; Hepatitis C virus) [nM]	EC50 ([6]; Hepatitis C virus) [nM]	EC50 [7, 11] [nM]	EC50 ([8]; Hepatitis C virus) [nM]	EC50 ([9]; Hepatitis C virus) [nM]	EC50 [10, 12] [nM]	EC50 [2] [nM]	EC50 [3] [nM]	EC50 ([4]; stable replicon genotype 4a, Renilla luciferase) [nM]	EC50 [5] [nM]	EC50 ([6]; stable replicon genotype 3a, Renilla luciferase) [nM]	EC50 ([7]; transient-transfected replicon genotype 1a R155K resistant variant, read-out: EC50 1A R155K) [nM]	EC50 [8] [nM]	EC50 [9] [nM]	EC50 ([10]; transient-transfected replicon genotype 1b D168A resistant variant, read-out: EC50 1B D168A) [nM]
COc1ccc2nc3c(nc2c1)O[C@H]1CN(C(=O)[C@H](C(C)(C)C)NC(=O)O[C@@H]2CCC[C@H]2CCCCC3)[C@H](C(=O)N[C@]2(C(=O)NS(=O)(=O)C3(C)CC3)C[C@H]2C(F)F)[C@@H]1C [Example 27, (3aR,7S10S,1S,12R,24aR)-7-tert-butyl-N-[(1R,2R)-2-(difluoromethyl)-1-{[(1-methylcyclopropyl)sulfonyl]carbamoyl}cyclopropyl]-16-methoxy-11-methyl-5,8-dioxo-1,2,3,3a,5,6,7,8,11,12,20,21,22,23,24,24a-hexadecahydro-10H-9,12-methanocyclopenta[18,19][1,10,3,6]dioxadiazacyclononadecino[11,12-b]quinoxaline-10-carboxamide]	0.08	6.7	4.3	6.1	6	266	20	6.6	5.2	70									
CC[C@@H]1[C@@H]2CN(C(=O)[C@H](C(C)(C)C)NC(=O)O[C@]3(C(F)(F)F)CCC[C@H]3CCCCCc3nc4ccc(OC)cc4nc3O2)[C@@H]1C(=O)N[C@]1(C(=O)NS(=O)(=O)C2CC2)C[C@H]1C(F)F [Example 11, (7S,10S,11 S,12R)-7-tert-butyl-N-[(1R,2R)-1-[(cyclopropylsulfonyl)carbamoyl]-2-(difluoromethyl)cyclopropyl]-1-ethyl-16-methoxy-5,8-dioxo-3aR-(trifluoromethyl)-1,2,3,3a,5,6,7,8,11,12,20,21,22,23,24,24a-hexadecahydro-1 OH-9,12-methanocyclopenta[18,19][1,10,3,6]dioxadiazacyclononadecino[11,12-b]quinoxaline-10-carboxamide]	0.88										34	9.4	19	20	1160	159	28	17	605
CC[C@]12C[C@@H]1CCCCCc1nc3ccc(OC)cc3nc1O[C@H]1CN(C(=O)[C@H](C(C)(C)C)NC(=O)O2)[C@H](C(=O)N[C@]2(C(=O)NS(=O)(=O)C3(C)CC3)C[C@H]2C(F)F)[C@@H]1C [Example 42, (1aS,5S,8S,9S,10R,22aS)-5-tert-butyl-N-[(1R,2R)-2-(difluoromethyl)-1-{[(1-methylcyclopropyl)sulfonyl]carbamoyl}cyclopropyl]-1a-ethyl-14-methoxy-9-methyl-3,6-dioxo-1,1a,3,4,5,6,9,10,18,19,20,21,22,22a-tetradecahydro-8H-7,10-methanocyclopropa[18,19][1,10,3,6]dioxadiazacyclononadecino[11,12-b]quinoxaline-8-carboxamide]	0.75	17	10	14	17	343	35	20	16	109									
CC[C@@]12C[C@H]1CCCCCc1nc3ccc(OC)cc3nc1O[C@H]1CN(C(=O)[C@H](C(C)(C)C)NC(=O)O2)[C@H](C(=O)N[C@]2(C(=O)NS(=O)(=O)C3(C)CC3)C[C@H]2C(F)F)[C@@H]1C [Example 43, (1aR,5S,8S,9S,10R,22aR)-5-tert-butyl-N-[(1R,2R)-2-(difluoromethyl)-1-{[(1-methylcyclopropyl)sulfonyl]carbamoyl}cyclopropyl]-1a-ethyl-14-methoxy-9-methyl-3,6-dioxo-1,1a,3,4,5,6,9,10,18,19,20,21,22,22a-tetradecahydro-8H-7,10-methanocyclopropa[18,19][1,10,3,6]dioxadiazacyclononadecino[11,12-b]quinoxaline-8-carboxamide]	0.16	5.2	2.4	3.6	3.8	92	8.7	4.9	3.8	41									
COc1ccc2nc3c(nc2c1)O[C@H]1CN(C(=O)[C@H](C(C)(C)C)NC(=O)O[C@@H]2C[C@H]2CCCCC3)[C@H](C(=O)N[C@]2(C(=O)NS(=O)(=O)C3(C)CC3)C[C@H]2C(F)F)[C@@H]1C [Example 18, (1aR,5S,8S,9S,10R,22aR)-5-tert-butyl-N-[(1R,2R)-2-(difluoromethyl)-1-{[(1-methylcyclopropyl)sulfonyl]carbamoyl}cyclopropyl]-14-methoxy-9-methyl-3,6-dioxo-1,1a,3,4,5,6,9,10,18,19,20,21,22,22a-tetradecahydro-8H-7,10-methanocyclopropa[18,19][1,10 3,6]dioxadiazacyclononadecino[11,12-b]quinoxaline-8-carboxamide]	0.1	5		2.8		70		3.9	2.6										
CC[C@@H]1[C@@H]2CN(C(=O)[C@H](C3CCCCC3)NC(=O)O[C@@H]3C[C@H]3CCCCCc3nc4ccc(OC)cc4nc3O2)[C@@H]1C(=O)N[C@]1(C(=O)NS(=O)(=O)C2(C)CC2)C[C@H]1C(F)F [Example 16, (1aR,5S,8S,9S,10R,22aR)-5-cyclohexyl-N-[(1R,2R)-2-(difluoromethyl)-1-{[(1-methylcyclopropyl)sulfonyl]carbamoyl}cyclopropyl]-9-ethyl-14-methoxy-3,6-dioxo-1,1a,3,4,5,6,9,10,18,19,20,21,22,22a-tetradecahydro-8H-7,10-methanocyclopropa[18,19][1,10,3,6]dioxadiazacyclononadecino[11,12-b]quinoxaline-8-carboxamide]	0.21	6.2		8.1		201		12	7.4										

— patent publication US10335409B2 (priority 2012, dated 2019)
